This is an account of results in US6518243B1, “Desleucyl glycopeptide antibiotics and methods of making same” (Trustees of Princeton University, priority 1999, dated 2003).

One assay concerns E. faecalis (CL 4877). The assay is described as follows: Zone of inhibition screen, 96 well agar array format. Format: cell-based. Further details: scale not given here. The settings on record: zone of inhibition relative to 1 mg/ml p-chlorobiphenylvancomycin. As for the experimental part: The antibacterial activity of each of the compounds against the bacterial strains E. faceium (ATCC 49624), S. epidermidis (ATCC 12228), S. aureus (ATCC 29213), E. faecalis (CL 4877) and E. faecalis (ATCC 292121) was tested. Each of the compounds was screened in a 96 will agar array format.
For `CC1OC(OC2C(Oc3c4cc5cc3Oc3ccc(cc3Cl)C(O)C3NC(=O)C(NC(=O)C5NC(=O)C(CC(N)=O)NC(=O)C(NC(=O)CC(F)(F)F)C(O)c5ccc(c(Cl)c5)O4)c4ccc(O)c(c4)-c4c(O)cc(O)cc4C(C(=O)O)NC3=O)OC(CO)C(O)C2O)CC(C)(NCc2ccc(-c3ccc(Cl)cc3)cc2)C1O` (stereo not drawn) [Compound 249], the “zone score, E. faecalis CL 4877” value came to 2.

For `CC1OC(OC2C(Oc3c4cc5cc3Oc3ccc(cc3Cl)C(O)C3NC(=O)C(NC(=O)C5NC(=O)C(CC(N)=O)NC(=O)C(NC(=O)c5cccnc5)C(O)c5ccc(c(Cl)c5)O4)c4ccc(O)c(c4)-c4c(O)cc(O)cc4C(C(=O)O)NC3=O)OC(CO)C(O)C2O)CC(C)(NCc2ccc(-c3ccc(Cl)cc3)cc2)C1O` (stereo not drawn) [Compound 307], the “zone score, E. faecalis CL 4877” value is listed as 2.

For `C[C@H]1O[C@H](O[C@H]2[C@H](Oc3c4cc5cc3Oc3ccc(cc3Cl)[C@@H](O)[C@@H](NC(=O)/C=C/c3ccc(Cl)c(Cl)c3)C(=O)N[C@@H](CC(N)=O)C(=O)N[C@H]5C(=O)N[C@H]3C(=O)N[C@H](C(=O)N[C@@H](C(=O)O)c5cc(O)cc(O)c5-c5cc3ccc5O)[C@H](O)c3ccc(c(Cl)c3)O4)O[C@H](CO)[C@@H](O)[C@@H]2O)C[C@@](C)(NCc2ccc(-c3ccc(Cl)cc3)cc2)[C@H]1O` [Compound 251], the “zone score, E. faecalis CL 4877” value came out at 2.

As for `CCC(=O)C(=O)NC1C(=O)NC(CC(N)=O)C(=O)NC2C(=O)NC3C(=O)NC(C(=O)NC(C(=O)O)c4cc(O)cc(O)c4-c4cc3ccc4O)C(O)c3ccc(c(Cl)c3)Oc3cc2cc(c3OC2OC(CO)C(O)C(O)C2OC2CC(C)(NCc3ccc(-c4ccc(Cl)cc4)cc3)C(O)C(C)O2)Oc2ccc(cc2Cl)C1O` (stereo not drawn) [Compound 242], the “zone score, E. faecalis CL 4877” value is recorded as 2.

`CC1OC(OC2C(Oc3c4cc5cc3Oc3ccc(cc3Cl)C(O)C3NC(=O)C(NC(=O)C5NC(=O)C(CC(N)=O)NC(=O)C(NC(=O)c5cccnc5O)C(O)c5ccc(c(Cl)c5)O4)c4ccc(O)c(c4)-c4c(O)cc(O)cc4C(C(=O)O)NC3=O)OC(CO)C(O)C2O)CC(C)(NCc2ccc(-c3ccc(Cl)cc3)cc2)C1O` (stereo not drawn) [Compound 241]: the “zone score, E. faecalis CL 4877” value is given as 2.

The same assay, now with this note: zone of inhibition relative to 1 mg/ml stock solution of p-chlorobiphenylvancomycin.
As to `C=C(NC(C)=O)C(=O)NC1C(=O)NC(CC(N)=O)C(=O)NC2C(=O)NC3C(=O)NC(C(=O)NC(C(=O)O)c4cc(O)cc(O)c4-c4cc3ccc4O)C(O)c3ccc(c(Cl)c3)Oc3cc2cc(c3OC2OC(CO)C(O)C(O)C2OC2CC(C)(NCc3ccc(-c4ccc(Cl)cc4)cc3)C(O)C(C)O2)Oc2ccc(cc2Cl)C1O` (stereo not drawn) [Compound 102], the “zone score, E. faecalis CL 4877” value turned out to be 2.

As for `CC1OC(OC2C(Oc3c4cc5cc3Oc3ccc(cc3Cl)C(O)C3NC(=O)C(NC(=O)C5NC(=O)C(CC(N)=O)NC(=O)C(NC(=O)c5cnccn5)C(O)c5ccc(c(Cl)c5)O4)c4ccc(O)c(c4)-c4c(O)cc(O)cc4C(C(=O)O)NC3=O)OC(CO)C(O)C2O)CC(C)(NCc2ccc(-c3ccc(Cl)cc3)cc2)C1O` (stereo not drawn) [Compound 103], the “zone score, E. faecalis CL 4877” value was determined as 2.

Consider `CC1OC(OC2C(Oc3c4cc5cc3Oc3ccc(cc3Cl)[C@@H](O)[C@@H](NC(=O)CS(C)(=O)=O)C(=O)N[C@@H](CC(N)=O)C(=O)N[C@H]5C(=O)NC3C(=O)N[C@H](C(=O)N[C@@H](C(=O)O)c5cc(O)cc(O)c5-c5cc3ccc5O)[C@H](O)c3ccc(c(Cl)c3)O4)OC(CO)C(O)C2O)CC(C)(NCc2ccc(-c3ccc(Cl)cc3)cc2)C1O` (stereo partly drawn) [Compound 171], for which the “zone score, E. faecalis CL 4877” value was 2.

Take `CC1OC(OC2C(Oc3c4cc5cc3Oc3ccc(cc3Cl)C(O)C3NC(=O)C(NC(=O)C5NC(=O)C(CC(N)=O)NC(=O)C(NC(=O)C(O)CN)C(O)c5ccc(c(Cl)c5)O4)c4ccc(O)c(c4)-c4c(O)cc(O)cc4C(C(=O)O)NC3=O)OC(CO)C(O)C2O)CC(C)(NCc2ccc(-c3ccc(Cl)cc3)cc2)C1O` (mixture of isomers) [Compound 60]: the “zone score, E. faecalis CL 4877” value turned out to be 2.

On to `CC(=O)NC(C(=O)NC1C(=O)NC(CC(N)=O)C(=O)NC2C(=O)NC3C(=O)NC(C(=O)NC(C(=O)O)c4cc(O)cc(O)c4-c4cc3ccc4O)C(O)c3ccc(c(Cl)c3)Oc3cc2cc(c3OC2OC(CO)C(O)C(O)C2OC2CC(C)(NCc3ccc(-c4ccc(Cl)cc4)cc3)C(O)C(C)O2)Oc2ccc(cc2Cl)C1O)C(C)O` (stereo not drawn) [Compound 125], for which the “zone score, E. faecalis CL 4877” value stood at 2.

For the compound `CC1OC(OC2C(Oc3c4cc5cc3Oc3ccc(cc3Cl)C(O)C3NC(=O)C(NC(=O)C5NC(=O)C(CC(N)=O)NC(=O)C(NC(=O)CN(C)C(=N)N)C(O)c5ccc(c(Cl)c5)O4)c4ccc(O)c(c4)-c4c(O)cc(O)cc4C(C(=O)O)NC3=O)OC(CO)C(O)C2O)CC(C)(NCc2ccc(-c3ccc(Cl)cc3)cc2)C1O` (stereo not drawn) [Compound 145], the “zone score, E. faecalis CL 4877” value is on record as 2.

Take `CC1OC(OC2C(Oc3c4cc5cc3Oc3ccc(cc3Cl)C(O)C3NC(=O)C(NC(=O)C5NC(=O)C(CC(N)=O)NC(=O)C(NC(=O)C(NC(N)=O)NC(N)=O)C(O)c5ccc(c(Cl)c5)O4)c4ccc(O)c(c4)-c4c(O)cc(O)cc4C(C(=O)O)NC3=O)OC(CO)C(O)C2O)CC(C)(NCc2ccc(-c3ccc(Cl)cc3)cc2)C1O` (stereo not drawn) [Compound 126]: the “zone score, E. faecalis CL 4877” value amounted to 2.

On to `CC(=O)CC(=O)NCC(=O)N[C@H]1C(=O)N[C@@H](CC(N)=O)C(=O)N[C@H]2C(=O)NC3C(=O)N[C@H](C(=O)N[C@@H](C(=O)O)c4cc(O)cc(O)c4-c4cc3ccc4O)[C@H](O)c3ccc(c(Cl)c3)Oc3cc2cc(c3OC2OC(CO)C(O)C(O)C2OC2CC(C)(NCc3ccc(-c4ccc(Cl)cc4)cc3)C(O)C(C)O2)Oc2ccc(cc2Cl)[C@H]1O` (stereo partly drawn) [Compound 172], for which the “zone score, E. faecalis CL 4877” value was 2.

As to `C[C@H]1O[C@H](O[C@H]2[C@H](Oc3c4cc5cc3Oc3ccc(cc3Cl)[C@@H](O)[C@@H](NC(=O)[C@H](N)CSC(c3ccccc3)(c3ccccc3)c3ccccc3)C(=O)N[C@@H](CC(N)=O)C(=O)N[C@H]5C(=O)N[C@H]3C(=O)N[C@H](C(=O)N[C@@H](C(=O)O)c5cc(O)cc(O)c5-c5cc3ccc5O)[C@H](O)c3ccc(c(Cl)c3)O4)O[C@H](CO)[C@@H](O)[C@@H]2O)C[C@@](C)(NCc2ccc(-c3ccc(Cl)cc3)cc2)[C@H]1O` [Compound 14], the “zone score, E. faecalis CL 4877” value came to 2.

Consider `CC1OC(OC2C(Oc3c4cc5cc3Oc3ccc(cc3Cl)C(O)C(NC(=O)C(O)C3OC(=O)C(O)C3O)C(=O)NC(CC(N)=O)C(=O)NC5C(=O)NC3C(=O)NC(C(=O)NC(C(=O)O)c5cc(O)cc(O)c5-c5cc3ccc5O)C(O)c3ccc(c(Cl)c3)O4)OC(CO)C(O)C2O)CC(C)(NCc2ccc(-c3ccc(Cl)cc3)cc2)C1O` (stereo not drawn) [Compound 155], for which the “zone score, E. faecalis CL 4877” value is given as 2.

For `CC1OC(OC2C(Oc3c4cc5cc3Oc3ccc(cc3Cl)C(O)C3NC(=O)C(NC(=O)C5NC(=O)C(CC(N)=O)NC(=O)C(NC(=O)C(N)Cc5c[nH]cn5)C(O)c5ccc(c(Cl)c5)O4)c4ccc(O)c(c4)-c4c(O)cc(O)cc4C(C(=O)O)NC3=O)OC(CO)C(O)C2O)CC(C)(NCc2ccc(-c3ccc(Cl)cc3)cc2)C1O` (stereo not drawn) [Compound 71], the “zone score, E. faecalis CL 4877” value is recorded as 2.

Consider `CC1OC(OC2C(Oc3c4cc5cc3Oc3ccc(cc3Cl)C(O)C3NC(=O)C(NC(=O)C5NC(=O)C(CC(N)=O)NC(=O)C(NC(=O)C(CCCNC(=N)N)NC(=O)CNC(=O)OC(C)(C)C)C(O)c5ccc(c(Cl)c5)O4)c4ccc(O)c(c4)-c4c(O)cc(O)cc4C(C(=O)O)NC3=O)OC(CO)C(O)C2O)CC(C)(NCc2ccc(-c3ccc(Cl)cc3)cc2)C1O` (stereo not drawn) [Compound 138], for which the “zone score, E. faecalis CL 4877” value is reported as 2.

As for `CC1OC(OC2C(Oc3c4cc5cc3Oc3ccc(cc3Cl)C(O)C3NC(=O)C(NC(=O)C5NC(=O)C(CC(N)=O)NC(=O)C(NC(=O)C(O)CO)C(O)c5ccc(c(Cl)c5)O4)c4ccc(O)c(c4)-c4c(O)cc(O)cc4C(C(=O)O)NC3=O)OC(CO)C(O)C2O)CC(C)(NCc2ccc(-c3ccc(Cl)cc3)cc2)C1O` (mixture of isomers) [Compound 152], the “zone score, E. faecalis CL 4877” value was 2.

For `CC(=O)NC(CO)C(=O)NC1C(=O)NC(CC(N)=O)C(=O)NC2C(=O)NC3C(=O)NC(C(=O)NC(C(=O)O)c4cc(O)cc(O)c4-c4cc3ccc4O)C(O)c3ccc(c(Cl)c3)Oc3cc2cc(c3OC2OC(CO)C(O)C(O)C2OC2CC(C)(NCc3ccc(-c4ccc(Cl)cc4)cc3)C(O)C(C)O2)Oc2ccc(cc2Cl)C1O` (mixture of isomers) [Compound 178], the “zone score, E. faecalis CL 4877” value is listed as 2.

In the case of `CC(=O)NC(CC(N)=O)C(=O)NC1C(=O)NC(CC(N)=O)C(=O)NC2C(=O)NC3C(=O)NC(C(=O)NC(C(=O)O)c4cc(O)cc(O)c4-c4cc3ccc4O)C(O)c3ccc(c(Cl)c3)Oc3cc2cc(c3OC2OC(CO)C(O)C(O)C2OC2CC(C)(NCc3ccc(-c4ccc(Cl)cc4)cc3)C(O)C(C)O2)Oc2ccc(cc2Cl)C1O` (stereo not drawn) [Compound 113], the “zone score, E. faecalis CL 4877” value is 2.

Turning to `CC1OC(OC2C(Oc3c4cc5cc3Oc3ccc(cc3Cl)C(O)C3NC(=O)C(NC(=O)C5NC(=O)C(CC(N)=O)NC(=O)C(NC(=O)C(N)Cc5c[nH]cn5)C(O)c5ccc(c(Cl)c5)O4)c4ccc(O)c(c4)-c4c(O)cc(O)cc4C(C(=O)O)NC3=O)OC(CO)C(O)C2O)CC(C)(NCc2ccc(-c3ccc(Cl)cc3)cc2)C1O` (stereo not drawn) [Compound 58], the “zone score, E. faecalis CL 4877” value came to 2.

As to `CC1OC(OC2C(Oc3c4cc5cc3Oc3ccc(cc3Cl)C(O)C3NC(=O)C(NC(=O)C5NC(=O)C(CC(N)=O)NC(=O)C(NC(=O)CC5OCC6CN7CC8C9=CC(=O)C(=O)C([N+](=O)[O-])=C9NC8C5C6CC7C)C(O)c5ccc(c(Cl)c5)O4)c4ccc(O)c(c4)-c4c(O)cc(O)cc4C(C(=O)O)NC3=O)OC(CO)C(O)C2O)CC(C)(NCc2ccc(-c3ccc(Cl)cc3)cc2)C1O` (stereo not drawn) [Compound 144], the “zone score, E. faecalis CL 4877” value is 2.

For `CC(=O)NCC(=O)N[C@H]1C(=O)N[C@@H](CC(N)=O)C(=O)N[C@H]2C(=O)NC3C(=O)N[C@H](C(=O)N[C@@H](C(=O)O)c4cc(O)cc(O)c4-c4cc3ccc4O)[C@H](O)c3ccc(c(Cl)c3)Oc3cc2cc(c3OC2OC(CO)C(O)C(O)C2OC2CC(C)(NCc3ccc(-c4ccc(Cl)cc4)cc3)C(O)C(C)O2)Oc2ccc(cc2Cl)[C@H]1O` (stereo partly drawn) [Compound 179], the “zone score, E. faecalis CL 4877” value was 2.

With `CC1OC(OC2C(Oc3c4cc5cc3Oc3ccc(cc3Cl)C(O)C3NC(=O)C(NC(=O)C5NC(=O)C(CC(N)=O)NC(=O)C(NC(=O)c5nccnc5N)C(O)c5ccc(c(Cl)c5)O4)c4ccc(O)c(c4)-c4c(O)cc(O)cc4C(C(=O)O)NC3=O)OC(CO)C(O)C2O)CC(C)(NCc2ccc(-c3ccc(Cl)cc3)cc2)C1O` (stereo not drawn) [Compound 105], the “zone score, E. faecalis CL 4877” value was determined as 2.
